Key:
[1] = Pharmacokinetics from metabolite-corrected arterial plasma TACs after oral administration; type: in vivo, Sprague Dawley Rats
Method: (§1) Anaesthesia was induced with 5% isoflurane (IsoFlo®, Abbott Laboratories, Abbott Park, IL, USA) and maintained by 2% of isoflurane in 100% O2. During the experiment, rats were kept normothermic using a heating blanket (Homeothermic Blanket Control Unit; Bruker). The rat was positioned in supine position on an operating table and the two distal hind limbs were fixed forming an approximately 30° angle with the horizontal plane. The surgical region was scrubbed using Betadine, starting in the centre, and making a circular sweep outward. A skin incision was made in the femoral region. Soft tissue was dissected to expose the femoral neurovascular bundle, consisting of femoral vein, artery, and nerve. Fine tip forceps were placed between the artery, vein and nerve and were slowly opened to separate the vessels, exposing an approximately 1 cm length section of artery/vein. The vena profunda femoris was sutured to avoid retrograde bleeding via this vessel, and the sapheno-femoral junction was cauterized. A few millimetres from venatomy, a vascular clip was inserted in the direction of the catheter (to control the flow) and a suture was applied in the opposite direction (to avoid retrograde bleeding). The same operation was carried out both on the femoral vein and femoral artery. An appropriate syringe filled with 50 U/mL Heparin/physiologic saline solution was fixed at the terminus of the catheters and these were filled with heparinized saline solution. On the upper half of the vessel circumference, at a 45° angle, an incision was made and the catheter (fine bore polythene tubing: ID 0.58 mm, OD 0.98 mm) was inserted through the venotomy and advanced to the vascular clip. The vascular clip was then removed, and the catheter advanced distally towards the level of the inguinal ligament. The catheter was finally secured to the femoral vein/artery proximally and distally with 2 single knots using 4–0 braided silk suture. The catheters were connected to an in-house developed system composed by a peristaltic pump and gamma-radiation coincidence detector (Bioscan, B-FC-4100). The femoral artery catheter, the gamma detector, the peristaltic pump, and the femoral vein catheter were thus connected in series, to enable the extracorporeal circulation of blood (flow 150 μL/s from femoral artery to femoral vein) and continuous measurement of radioactivity in the blood (Figure 1).
(§2) The labelled compounds were administrated two different ways: (i) intravenous bolus infusion (ca. 37 MBq in 300 μL of saline solution was injected through the femoral vein catheter) and (ii) oral bolus administration. For oral administration, animals were fasted for 5 h. The radioactive dose (ca. 74 MBq in 300 μL of saline solution) was administered using flexible 20-gauge disposable flexible PTFE feeding needles (Fine Science Tools, F.S.T.) and a small animal Laryngoscope (Penn-Century, Model LS-2) for the correct visualization of the oesophagus. The study was conducted under no carrier added (NCA, dose adjusted to 1 μg/Kg) and carrier added (CA, dose adjusted to 5 mg/Kg) conditions. In all cases, data were imported in real time to an excel sheet using PLX-DAX add-on for Microsoft Excel (measured in volts per second).
(§3) Arterial blood samples (1 per animal) were withdrawn (see Figure 1) from the femoral artery catheter and introduced into a capillary (Microhaematocrit capillaries 75 × 1.55, Nahita). Samples were centrifuged at 11,000× g […] for 10 min and the haematocrit was determined. A second blood sample was withdrawn and the amount of radioactivity of a fixed volume (10 µL) was measured in an automatic gamma counter (2470 Wizard, PerkinElmer) to determine Cb (concentration of radioactivity in blood) and convert data imported with PLX-DAX (Volts per seconds) into Bq/s using a previously determined calibration curve. Values were then expressed as percentage of injected dose per gram of blood (% ID/g). […]

[2] = PET biodistribution after intravenous administration; type: in vivo, rats; conditions: 1 µg/Kg
Method: Rats were anesthetized by inhalation of 5% isoflurane (IsoFlo®, Abbott Laboratories, Abbott Park, IL, USA) in pure O2 and maintained by 1.5–2% isoflurane in 100% O2. During imaging, rats were kept normothermic using a heating blanket (Homeothermic Blanket Control Unit; Bruker). For intravenous administration, once the animal was under anaesthesia, one of the lateral tail veins was catheterized with a 24-gauge catheter (Introcan Certo®, Bbraun) and [^11C]AHK2.1 or [^11C]AHK2.2 was injected using saline solution as the vehicle (n = 3 for each radiolabelled compound, 26 ± 5 MBq; dose adjusted to 1 µg/Kg) concomitantly with the start of a PET dynamic acquisition. Whole body dynamic images were acquired in 4 bed positions (21 frames: 5 × 5 s per bed, 5 × 30 s per bed, 5 × 60 s per bed, 6 × 120 s per bed; total acquisition time = 79.6 min) in the 400–700 keV energetic window using an eXploreVista-CT small animal PET-CT system (GE Healthcare, Waukesha, WI, USA). After each PET scan, CT acquisitions were also performed (140 µA intensity, 40 kV voltage) to provide anatomical information of each animal as well as the attenuation map for the later reconstruction of the PET images. […] After reconstruction, PET-CT images of the same animal were co-registered and analysed using PMOD image processing tool (PMOD Technologies Ltd., Zürich, Switzerland). […]

[3] = Pharmacokinetics from metabolite-corrected arterial plasma TACs after intravenous administration; type: in vivo, Sprague Dawley Rats
Method: as §1, §2, §3

FKBP12 = biological target: T1, FKBP12 (Homo sapiens, UniProt P62942); assay: Competitive ligand binding assay (FKBP/FRB NanoBiT luminescence protein complementation) in HEK293 cells; type: cell-based; conditions: rapamycin 30 nM
T1 construct: host or cells: HEK293
Method: Briefly, HEK293 (ATCC) cells were transfected with FKBP/FRB NanoBiT Control Pair (Promega, Madison, WI, USA) and kinetic measurements were performed 24 h after transfection with Nano-Glo Live Cell Reagent (Promega), as described by the manufacturer. A total of 30 nM rapamycin (Sigma-Aldrich, Madrid, Spain) and AHK2 (1 μM–10 mM) was sequentially added and each effect was recorded for 10 min. Specific activity was normalized to vehicle, and IC50 was calculated using GraphPad Prism by fitting the data to a four-parameter logistic curve.

T1 sequence (P62942 whole entry): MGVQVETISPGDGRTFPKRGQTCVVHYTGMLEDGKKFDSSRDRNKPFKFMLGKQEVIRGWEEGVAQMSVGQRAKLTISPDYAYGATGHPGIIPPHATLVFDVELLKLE

Row | Hill function parameter d (initial level of parent fraction) [1] | Hill function parameter a (plateau of parent fraction in plasma) ([1]; 1 µg/Kg) | Hill function parameter a (plateau of parent fraction in plasma) ([1]; 5 mg/Kg) | Cp/Cb ratio (radioactivity in plasma / blood) ([3]; arterial blood, rat) | percentage of radioactivity in plasma ([3]; from Cp/Cb and haematocrit 0.44 ± 0.04) | Hill function parameter d (initial level of parent fraction) ([3]; intravenous) | Hill function parameter a (plateau of parent fraction in plasma) ([3]; intravenous, 1 µg/Kg) | Hill function parameter a (plateau of parent fraction in plasma) ([3]; intravenous, 5 mg/Kg) | induction of FKBP12/FRB dimerization (luminescence) (FKBP12) | Structure (SMILES) | biodistribution of radioactivity in dynamic PET images [2]
1 | 1 | 0.10 | 0.13 | 1.44 ± 0.2 | ca. 81% | 1 | 0.075 | 0.29 | – | COc1ccc(SCc2cn(CCN(C)[11CH3])nn2)cc1 [[^11C]AHK2.1] | accumulation in the gastrointestinal tract, the kidneys and the bladder
2 | – | – | – | – | – | – | – | – | – | CN(C)CCn1cc(CSc2ccc(O[11CH3])cc2)nn1 [[^11C]AHK2.2] | rapid accumulation of radioactivity in the kidneys and elimination via urine
3 | – | – | – | – | – | – | – | – | induced | CO[C@H]1C[C@@H]2CC[C@@H](C)[C@@](O)(O2)C(=O)C(=O)N2CCCC[C@H]2C(=O)O[C@H]([C@H](C)C[C@@H]2CC[C@@H](O)[C@H](OC)C2)CC(=O)[C@H](C)/C=C(\C)[C@@H](O)[C@@H](OC)C(=O)[C@H](C)C[C@H](C)/C=C/C=C/C=C/1C [rapamycin, reference compound] | –

From article PMC9953224, “Pharmacokinetic Evaluation of New Drugs Using a Multi-Labelling Approach and PET Imaging: Application to a Drug Candidate with Potential Application in Neuromuscular Disorders” (Biomedicines, 2023)
